Structures are written as SMILES.

Data on 35 molecules can be found in patent US12503436B2, “Compounds and compositions for treating conditions associated with STING activity” (NOVARTIS PHARMA AG, priority 2021, dated 2025).

In this experiment the target is STING (Homo sapiens, UniProt Q86WV6, G230A/H232R/R293Q/R71H). Nature of the experiment: STING reporter assay in THP1-Dual KO-IFNAR2 cells (2′3′cGAMP stimulation, luciferase reporter). The format is cell-based. The following applies: 15 μM 2′3′cGAMP stimulation, 24 h, read-out: Pharmaron, THP1_IFNAR2 STING 24 h Luci Normalized: GeoMean EC50. An outline of the steps: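 EC50 from secreted luciferase (QUANTI-Luc Plus luminescence of supernatant) after 24 h at 37 °C, 5% CO2. Cells: THP1-Dual KO-IFNAR2, treated with compound (0.0017-100 μM final) plus lipofected 2′3′cGAMP at 15 μM final.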
Sequence of STING (Q86WV6 whole entry R71H/G230A/H232R/R293Q): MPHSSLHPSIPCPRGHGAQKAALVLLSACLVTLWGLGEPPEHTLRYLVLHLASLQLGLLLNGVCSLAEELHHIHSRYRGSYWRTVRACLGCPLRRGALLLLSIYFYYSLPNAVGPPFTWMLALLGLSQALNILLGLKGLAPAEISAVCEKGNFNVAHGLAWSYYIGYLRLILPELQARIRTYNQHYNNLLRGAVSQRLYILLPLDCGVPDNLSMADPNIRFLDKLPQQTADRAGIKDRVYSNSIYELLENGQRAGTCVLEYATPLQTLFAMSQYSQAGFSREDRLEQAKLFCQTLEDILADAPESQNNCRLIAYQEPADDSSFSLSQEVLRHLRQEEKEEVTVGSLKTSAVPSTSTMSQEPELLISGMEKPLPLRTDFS
For the molecule `O=C(Nc1c[nH]c2ccc(CC(O)Cc3ccc(C(F)(F)F)cc3)cc12)C1CC1` (centres unmarked) [Compound 240, N-(5-(2-hydroxy-3-(4-(trifluoromethyl)phenyl)propyl)-1H-indol-3-yl)cyclopropanecarboxamide], the EC50 (as a rule, the concentration at which the effect is half-maximal) lay within 200 to 1000 nM.

Consider `COCCC(=O)Nc1c[nH]c2ccc(O[C@H]3C[C@H](c4ccc(C(F)(F)F)cc4)C3)cc12` [Compound 241, 3-methoxy-N-(5-((1r,3r)-3-(4-(trifluoromethyl)phenyl)cyclobutoxy)-1H-indol-3-yl)propanamide], for which the EC50 fell in the range of 40 to 200 nM.

On to `CO[C@H]1C[C@H](C(=O)Nc2c[nH]c3ccc(O[C@H]4C[C@H](c5ccc(C(F)(F)F)cc5)C4)cc23)C1` [Compound 242, trans-3-methoxy-N-(5-(trans-3-(4-(trifluoromethyl)phenyl)cyclobutoxy)-1H-indol-3-yl)cyclobutane-1-carboxamide], for which the EC50 is 40 to 200 nM.

For `O=C(Nc1c[nH]c2ccc(O[C@H]3C[C@@H](c4ccc(C(F)(F)F)cc4)C3)cc12)C1CN(CC(F)(F)F)C1` [Compound 243, 1-(2,2,2-trifluoroethyl)-N-(5-(cis-3-(4-(trifluoromethyl)phenyl)cyclobutoxy)-1H-indol-3-yl)azetidine-3-carboxamide], the EC50 lay within 40 to 200 nM.

For `O=C(Nc1c[nH]c2ccc(O[C@H]3C[C@H](c4ccc(C(F)(F)F)cc4)C3)cc12)C1CN(CC(F)(F)F)C1` [Compound 244, 1-(2,2,2-trifluoroethyl)-N-(5-(trans-3-(4-(trifluoromethyl)phenyl)cyclobutoxy)-1H-indol-3-yl)azetidine-3-carboxamide], the EC50 lay in the range of 40 to 200 nM.

`CO[C@H]1C[C@@H](C(=O)Nc2c[nH]c3ccc(O[C@H]4C[C@@H](c5ccc(C(F)(F)F)cc5)C4)cc23)C1` [Compound 245, cis-3-methoxy-N-(5-(cis-3-(4-(trifluoromethyl)phenyl)cyclobutoxy)-1H-indol-3-yl)cyclobutane-1-carboxamide]: the EC50 was 40 to 200 nM.

Consider `CO[C@H]1C[C@@H](C(=O)Nc2c[nH]c3ccc(O[C@H]4C[C@H](c5ccc(C(F)(F)F)cc5)C4)cc23)C1` [Compound 246, cis-3-methoxy-N-(5-(trans-3-(4-(trifluoromethyl)phenyl)cyclobutoxy)-1H-indol-3-yl)cyclobutane-1-carboxamide], for which the EC50 lay in the range of 40 to 200 nM.

On to `CC(=O)Nc1c[nH]c2ccc(OCc3ccc(C(F)(F)F)cc3)cc12` [Compound 247, N-(5-((4-(trifluoromethyl)benzyl)oxy)-1H-indol-3-yl)acetamide], for which the EC50 lay in the range of 200 to 1000 nM.

As to `CC(=O)Nc1c[nH]c2ccc(OCCc3ccc(C(F)(F)F)cc3)nc12` [Compound 248, N-(5-(4-(trifluoromethyl)phenethoxy)-1H-pyrrolo[3,2-b]pyridin-3-yl)acetamide], the EC50 fell in the range of 1000 to 5000 nM.

Take `O=C(Nc1c[nH]c2ccc(OCCc3ccc(C(F)(F)F)cc3)cc12)C1CC(F)(F)C1` [Compound 249, 3,3-difluoro-N-(5-(4-(trifluoromethyl)phenethoxy)-1H-indol-3-yl)cyclobutane-1-carboxamide]: the EC50 lay in the range of 200 to 1000 nM.

For `CC1(C(=O)Nc2c[nH]c3ccc(OCCc4ccc(C(F)(F)F)cc4)cc23)CC1` [Compound 251, 1-methyl-N-(5-(4-(trifluoromethyl)phenethoxy)-1H-indol-3-yl)cyclopropane-1-carboxamide], the EC50 lay within 40 to 200 nM.

As to `O=C(Nc1c[nH]c2ccc(OCCc3ccc(C(F)(F)F)cc3)cc12)C1CC1` [Compound 252, N-(5-(4-(trifluoromethyl)phenethoxy)-1H-indol-3-yl)cyclopropanecarboxamide], the EC50 was in the range of 40 to 200 nM.

For the molecule `CC(=O)Nc1c[nH]c2ccc(OCCc3cnc(N4CCN(CC(F)(F)F)CC4)c(F)c3)cc12` [Compound 253, N-(5-(2-(5-fluoro-6-(4-(2,2,2-trifluoroethyl)piperazin-1-yl)pyridin-3-yl)ethoxy)-1H-indol-3-yl)acetamide], the EC50 is 1000 to 5000 nM.

For `CC(=O)Nc1c[nH]c2ccc(OCCc3cnc(N4CCC(F)(F)CC4)c(F)c3)cc12` [Compound 254, N-(5-(2-(6-(4,4-difluoropiperidin-1-yl)-5-fluoropyridin-3-yl)ethoxy)-1H-indol-3-yl)acetamide], the EC50 was in the range of 40 to 200 nM.

`CC(=O)Nc1c[nH]c2ccc(CCOc3ccc(C(F)(F)F)cc3)nc12` [Compound 255, N-(5-(2-(4-(trifluoromethyl)phenoxy)ethyl)-1H-pyrrolo[3,2-b]pyridin-3-yl)acetamide]: the EC50 lay within 1000 to 5000 nM.

For the molecule `CC(=O)Nc1c[nH]c2ccc(CCSc3ccc(C(F)(F)F)cc3)cc12` [Compound 256, N-(5-(2-((4-(trifluoromethyl)phenyl)thio)ethyl)-1H-indol-3-yl)acetamide], the EC50 was 200 to 1000 nM.

Consider `CC(=O)Nc1c[nH]c2ccc(OCCC3CCN(c4ccc(C(F)(F)F)cn4)CC3)cc12` [Compound 257, N-(5-(2-(1-(5-(trifluoromethyl)pyridin-2-yl)piperidin-4-yl)ethoxy)-1H-indol-3-yl)acetamide], for which the EC50 lay within 200 to 1000 nM.

As to `COCC(=O)Nc1c[nH]c2ccc(O[C@H]3C[C@H](c4ccc(C(F)(F)F)cc4)C3)cc12` [Compound 258, 2-methoxy-N-(5-(trans-3-(4-(trifluoromethyl)phenyl)cyclobutoxy)-1H-indol-3-yl)acetamide], the EC50 lay in the range of 40 to 200 nM.

Turning to `CC(=O)Nc1c[nH]c2c(C)cc(CCOc3ccc(C(F)(F)F)cc3)nc12` [Compound 259, N-(7-methyl-5-(2-(4-(trifluoromethyl)phenoxy)ethyl)-1H-pyrrolo[3,2-b]pyridin-3-yl)acetamide], the EC50 lay within 1000 to 5000 nM.

On to `COCC(=O)Nc1c[nH]c2ccc(O[C@H]3C[C@@H](c4ccc(C(F)(F)F)cc4)C3)cc12` [Compound 260, 2-methoxy-N-(5-(cis-3-(4-(trifluoromethyl)phenyl)cyclobutoxy)-1H-indol-3-yl)acetamide], for which the EC50 fell in the range of 200 to 1000 nM.

Consider `CC1(C(=O)Nc2c[nH]c3ccc(O[C@H]4C[C@H](c5ccc(C(F)(F)F)cc5)C4)cc23)CC1` [Compound 261, 1-methyl-N-(5-(trans-3-(4-(trifluoromethyl)phenyl)cyclobutoxy)-1H-indol-3-yl)cyclopropane-1-carboxamide], for which the EC50 was in the range of 40 to 200 nM.

Regarding `CC(=O)Nc1c[nH]c2ccc(OCCC34CC(c5ccccc5)(C3)C4)cc12` [Compound 262, N-(5-(2-(3-phenylbicyclo[1.1.1]pentan-1-yl)ethoxy)-1H-indol-3-yl)acetamide], the EC50 was in the range of 40 to 200 nM.

On to `CC1(C(=O)Nc2c[nH]c3ccc(O[C@H]4C[C@@H](c5ccc(C(F)(F)F)cc5)C4)cc23)CC1` [Compound 263, 1-methyl-N-(5-(cis-3-(4-(trifluoromethyl)phenyl)cyclobutoxy)-1H-indol-3-yl)cyclopropane-1-carboxamide], for which the EC50 lay within 200 to 1000 nM.

As for `CC(=O)Nc1c[nH]c2c(C)cc(CCOc3ccc(C(F)(F)F)cc3)cc12` [Compound 264, N-(7-methyl-5-(2-(4-(trifluoromethyl)phenoxy)ethyl)-1H-indol-3-yl)acetamide], the EC50 fell in the range of 1000 to 5000 nM.

As to `CC(=O)Nc1c[nH]c2ccc(CNS(=O)(=O)c3ccc(C(F)(F)F)cc3)cc12` [Compound 265, N-(5-(((4-(trifluoromethyl)phenyl)sulfonamido)methyl)-1H-indol-3-yl)acetamide], the concentration giving a half-maximal response (EC50) lay in the range of 5000 to 100000 nM.

In the case of `O=C(Nc1c[nH]c2ccc(O[C@H]3C[C@@H](c4ccc(C(F)(F)F)cc4)C3)cc12)C1CC1` [Compound 266, N-(5-(cis-3-(4-(trifluoromethyl)phenyl)cyclobutoxy)-1H-indol-3-yl)cyclopropanecarboxamide], the EC50 lay in the range of 40 to 200 nM.

Take `CC(=O)Nc1c[nH]c2ncc(OCCc3ccc(C(F)(F)F)cc3)cc12` [Compound 267, N-(5-(4-(trifluoromethyl)phenethoxy)-1H-pyrrolo[2,3-b]pyridin-3-yl)acetamide]: the EC50 fell in the range of 1000 to 5000 nM.

Consider `CC(=O)Nc1c[nH]c2ccc(COCC3CCN(CC(F)(F)F)CC3)cc12` [Compound 268, N-(5-(((1-(2,2,2-trifluoroethyl)piperidin-4-yl)methoxy)methyl)-1H-indol-3-yl)acetamide], for which the EC50 was in the range of 1000 to 5000 nM.

Take `CC(=O)Nc1c[nH]c2c(F)cc(CCOc3ccc(C(F)(F)F)cc3)cc12` [Compound 270, N-(7-fluoro-5-(2-(4-(trifluoromethyl)phenoxy)ethyl)-1H-indol-3-yl)acetamide]: the EC50 was in the range of 1000 to 5000 nM.

With `CC(=O)Nc1c[nH]c2ncc(COCc3ccc(C(F)(F)F)cc3)cc12` [Compound 271, N-(5-(((4-(trifluoromethyl)benzyl)oxy)methyl)-1H-pyrrolo[2,3-b]pyridin-3-yl)acetamide], the EC50 lay in the range of 1000 to 5000 nM.

Regarding `CC(=O)Nc1c[nH]c2c(C)cc(COCc3ccc(C(F)(F)F)cc3)cc12` [Compound 272, N-(7-methyl-5-(((4-(trifluoromethyl)benzyl)oxy)methyl)-1H-indol-3-yl)acetamide], the EC50 is 1000 to 5000 nM.

Turning to `COCC(=O)Nc1c[nH]c2ccc(COc3ccc(C(F)(F)F)cc3)cc12` [Compound 273, 2-methoxy-N-(5-((4-(trifluoromethyl)phenoxy)methyl)-1H-indol-3-yl)acetamide], the EC50 is 40 to 200 nM.

Regarding `CC(=O)Nc1c[nH]c2ccc(COC[C@@H]3[C@H]4CN(CC(F)(F)F)C[C@@H]34)cc12` [Compound 274, N-(5-((((1R,5S,6r)-3-(2,2,2-trifluoroethyl)-3-azabicyclo[3.1.0]hexan-6-yl)methoxy)methyl)-1H-indol-3-yl)acetamide], the EC50 fell in the range of 1000 to 5000 nM.

With `CC(=O)Nc1c[nH]c2ccc(CCC(C)(C)C3CCN(CC(F)(F)F)CC3)cc12` [Compound 275, N-(5-(3-methyl-3-(1-(2,2,2-trifluoroethyl)piperidin-4-yl)butyl)-1H-indol-3-yl)acetamide], the EC50 lay within 1000 to 5000 nM.

Regarding `CC(=O)Nc1c[nH]c2c(F)cc(COCc3ccc(C(F)(F)F)cc3)cc12` [Compound 276, N-(7-fluoro-5-(((4-(trifluoromethyl)benzyl)oxy)methyl)-1H-indol-3-yl)acetamide], the EC50 was 1000 to 5000 nM.
